Measured values reported in ChEMBL document CHEMBL1154513, “Design and synthesis of 4-aryl-4-oxobutanoic acid amides as calpain inhibitors” (Bioorg Med Chem Lett, 2009).

Molecular target: T1, Calpain-1 catalytic subunit (Homo sapiens, UniProt P07384)
T1 sequence (P07384 whole entry): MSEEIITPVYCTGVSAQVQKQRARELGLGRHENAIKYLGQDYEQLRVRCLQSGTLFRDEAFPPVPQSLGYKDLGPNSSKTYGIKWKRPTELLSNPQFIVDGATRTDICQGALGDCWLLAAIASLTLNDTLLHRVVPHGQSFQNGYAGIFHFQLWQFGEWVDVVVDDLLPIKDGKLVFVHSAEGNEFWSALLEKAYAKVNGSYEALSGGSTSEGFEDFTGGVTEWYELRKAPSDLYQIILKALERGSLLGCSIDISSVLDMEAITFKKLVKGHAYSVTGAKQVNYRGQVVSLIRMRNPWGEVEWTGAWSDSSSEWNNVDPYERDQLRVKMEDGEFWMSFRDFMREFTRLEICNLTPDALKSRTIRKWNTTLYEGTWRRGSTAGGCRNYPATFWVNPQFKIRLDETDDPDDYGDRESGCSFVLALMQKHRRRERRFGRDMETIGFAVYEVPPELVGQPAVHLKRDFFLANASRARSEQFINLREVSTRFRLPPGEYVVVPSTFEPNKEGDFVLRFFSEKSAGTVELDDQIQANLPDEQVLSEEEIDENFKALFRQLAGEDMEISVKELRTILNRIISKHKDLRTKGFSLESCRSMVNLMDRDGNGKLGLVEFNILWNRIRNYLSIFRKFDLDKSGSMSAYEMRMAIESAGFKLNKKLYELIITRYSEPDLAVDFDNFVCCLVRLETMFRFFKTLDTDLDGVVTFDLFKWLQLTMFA
Assay: Inhibition of human erythrocytes mu-calpain

Compound	IC50 [nM]
COc1ccc(C(=O)CCC(=O)N[C@@H](Cc2ccccc2)C(=O)C(N)=O)c(OC)c1	1180
O=C(CCC(=O)c1ccc(O)cc1O)N[C@@H](Cc1ccccc1)C(=O)C(=O)NCc1ccccc1	5730
COCOc1ccccc1C(=O)CCC(=O)N[C@@H](Cc1ccccc1)C(=O)C(N)=O	340
COCOc1cc(OC)ccc1C(=O)CCC(=O)N[C@@H](Cc1ccccc1)C(=O)C(N)=O	700
COc1ccccc1C(=O)CCC(=O)N[C@@H](Cc1ccccc1)C(=O)C(N)=O	540
COc1ccc(OC)c(C(=O)CCC(=O)N[C@@H](Cc2ccccc2)C(=O)C(=O)NCCc2ccccc2)c1	2090
COc1ccc(CCNC(=O)C(=O)[C@H](Cc2ccccc2)NC(=O)CCC(=O)c2cc(OC)ccc2OC)cc1	950
COc1ccc(CNC(=O)C(=O)[C@H](Cc2ccccc2)NC(=O)CCC(=O)c2cc(OC)ccc2OC)cc1	2350
COc1ccc(OC)c(C(=O)CCC(=O)N[C@@H](Cc2ccccc2)C(=O)C(=O)NCc2ccc(OC)c(OC)c2)c1	1640
COc1ccc(OC)c(CCCC(=O)N[C@@H](Cc2ccccc2)C(=O)C(=O)NCc2ccccc2)c1	8000
COc1ccc(OC)c(CCCC(=O)N[C@@H](Cc2ccccc2)C(=O)C(N)=O)c1	1860
NC(=O)C(=O)[C@H](Cc1ccccc1)NC(=O)CCC(=O)c1ccccc1	3200
COc1ccc(OC)c(C(=O)CCC(=O)N[C@@H](Cc2ccccc2)C(=O)C(N)=O)c1	520
COc1ccc(OC)c(C(=O)CCC(=O)N[C@@H](Cc2ccccc2)C(=O)C(=O)NCCc2ccc(OC)c(OC)c2)c1	2130

The next lines start with the values.

IC50 [nM]	Compound
13800	O=C(CCC(=O)c1ccccc1O)N[C@@H](Cc1ccccc1)C(=O)C(=O)NCc1ccccc1
3770	COc1ccc(OC)c(C(=O)CCC(=O)N[C@@H](Cc2ccccc2)C(=O)C(=O)NCc2ccccc2)c1
4290	COCOc1ccccc1C(=O)CCC(=O)N[C@@H](Cc1ccccc1)C(=O)C(=O)NCc1ccccc1
4250	COCOc1cc(OC)ccc1C(=O)CCC(=O)N[C@@H](Cc1ccccc1)C(=O)C(=O)NCc1ccccc1
6250	O=C(CCC(=O)c1ccccc1)N[C@@H](Cc1ccccc1)C(=O)C(=O)NCc1ccccc1
13000	COc1ccc(C(=O)CCC(=O)N[C@@H](Cc2ccccc2)C(=O)C(=O)NCc2ccccc2)c(O)c1
6160	COc1ccc(C(=O)CCC(=O)N[C@@H](Cc2ccccc2)C(=O)C(=O)NCc2ccccc2)c(OC)c1
3330	COc1ccccc1C(=O)CCC(=O)N[C@@H](Cc1ccccc1)C(=O)C(=O)NCc1ccccc1
